The values below come from publication PMC10254531, “The Effects of 1-O-Acetylbritannilactone Isolated from Inula britannica Flowers on Human Neutrophil Elastase and Inflammation of RAW 264.7 Cells and Zebrafish Larvae” (Molecules, 2023).

Experiment [1] deals with T1, human neutrophil elastase (HNE) (Homo sapiens, UniProt P08246).
T1 construct: gene ELANE
T1 sequence (P08246 30-247): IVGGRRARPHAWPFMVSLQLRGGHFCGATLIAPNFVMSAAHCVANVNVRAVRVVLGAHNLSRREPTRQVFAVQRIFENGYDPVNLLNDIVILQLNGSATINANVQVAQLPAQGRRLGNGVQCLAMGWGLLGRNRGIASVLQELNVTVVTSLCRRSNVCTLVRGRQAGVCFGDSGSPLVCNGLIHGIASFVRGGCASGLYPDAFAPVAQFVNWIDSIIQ
The experiment in a line: chromogenic enzyme assay with MeO-Suc-AAPV-pNA; Lineweaver-Burk and Dixon plots. Format: biochemical.

Experiment [2] has as its target T1, human neutrophil elastase (HNE). The experiment in a line: chromogenic enzyme assay with MeO-Suc-AAPV-pNA (positive control). Format: biochemical.

One may read the Ki as a measure of affinity in units of concentration, obtained from inhibition or displacement. A low value points to a stronger hold on the target. The molecule `C=C1C(=O)O[C@@H]2CC(C)=C([C@@H](C)CCCOC(C)=O)[C@@H](O)[C@H]12` [ABL, 1-O-acetylbritannilactone] showed a Ki in experiment [1] of 2.4 µM.

The term IC50 denotes the concentration that inhibits the measured activity by half. A low value points to higher potency. As to `O=C(O[C@@H]1Cc2c(O)cc(O)cc2O[C@@H]1c1cc(O)c(O)c(O)c1)c1cc(O)c(O)c(O)c1` [epigallocatechin gallate], in experiment [2], inhibition was half-maximal at 7.2 ± 0.5 µM (IC50).
